Where two headings read alike, the source gives them in different places.
Tests used:
Test in all cases: Etest MIC of indicator carbapenems on MH II agar without/with PMBN
Assay type in all cases: cell-based
[1] = tested on: Enterobacter aerogenes EA 15038 (porin+)
Protocol: (§1) The determinations of antibiotic MIC were carried out on solid culture media with the Etest® method. To do this, Etest® strips (bioMérieux, France) were used: • Etest® Imipenem IM 32, and • Etest® Ertapenem ETP 32, and also solid culture media, differing from one another by virtue of their non-inhibitory concentrations of PMBN.
(§2) These solid culture media are prepared in Petri dishes (0=145 mm; V=50 ml) on a base of MH II Agar (Becton Dickinson®, United States), more or less supplemented with PMBN. The PMBN concentrations range from 0 up to concentrations equivalent to one fifth of the MIC of PMBN (⅕ MICPMBN).
(§3) Using a swab and the Retro C80™ rota-plater (bioMérieux, France), the culture media were inoculated with the bacteria, originating from an inoculum of 0.5 McFarland, prepared in 0.85% NaCl solution from colonies subcultured the day before on MH II agar.
(§4) The various Etest® strips are then deposited on the surface of the culture media. After 16 to 20 hours of incubation at 35° C., the MICS were read.

[2] = tested on: Enterobacter aerogenes EA 2 (porin+); details: Klebsiella aerogenes
Protocol: as §1, §2, §3, §4

C. freundii 0403012 = tested on: C. freundii 0403012
Protocol: as §1, §2, §3, §4
(§5) To do this, imipenem and ertapenem were used as indicator carbapenems. Non-inhibitory concentrations of PMBN, equivalent to concentrations of one tenth ( 1/10), one eighth (⅛) and one fifth (⅕) of the MIC of PMBN, were applied.

C. freundii 1204047 = tested on: C. freundii 1204047
Protocol: as §1, §2, §3, §4, §5

[3] = tested on: E. cloacae 0901026 (KPC-2 producer)
Protocol: as §1, §2, §3, §4, §5

[4] = tested on: E. cloacae 1008073 (VIM-1 producer)
Protocol: as §1, §2, §3, §4, §5

[5] = tested on: E. cloacae 1008079 (IMP-1 producer)
Protocol: as §1, §2, §3, §4, §5

[6] = tested on: E. cloacae 1008096 (VIM-1 producer)
Protocol: as §1, §2, §3, §4, §5

[7] = tested on: E. cloacae 1101172 (NDM producer)
Protocol: as §1, §2, §3, §4, §5

E. cloacae 9304026 = tested on: E. cloacae 9304026
Protocol: as §1, §2, §3, §4, §5

[8] = tested on: E. coli 0506040 (VIM-1 producer)
Protocol: as §1, §2, §3, §4, §5

[9] = tested on: E. coli 1008077 (VIM-1 producer)
Protocol: as §1, §2, §3, §4, §5

[10] = tested on: E. coli 1012292 (KPC-2 producer)
Protocol: as §1, §2, §3, §4, §5

[11] = tested on: K. pneumoniae 0404024 (VIM-1 producer)
Protocol: as §1, §2, §3, §4, §5

[12] = tested on: K. pneumoniae 1104053 (OXA-48 producer)
Protocol: as §1, §2, §3, §4, §5

[13] = tested on: K. pneumoniae 1108001 (KPC-2 producer)
Protocol: as §1, §2, §3, §4, §5

[14] = tested on: K. pneumoniae 1108002 (KPC-3 producer)
Protocol: as §1, §2, §3, §4, §5

[15] = tested on: K. pneumoniae 1108006 (KPC-2 producer)
Protocol: as §1, §2, §3, §4, §5

[16] = tested on: K. pneumoniae 1108007 (VIM-1 producer)
Protocol: as §1, §2, §3, §4, §5

[17] = tested on: K. pneumoniae 1108016 (VIM-1 producer)
Protocol: as §1, §2, §3, §4, §5

[18] = tested on: S. marcescens 1008175 (IMP-1 producer)
Protocol: as §1, §2, §3, §4, §5

Work on `C[C@@H](O)[C@H]1C(=O)N2C(C(=O)O)=C(S[C@@H]3CN[C@H](C(=O)Nc4cccc(C(=O)O)c4)C3)[C@H](C)[C@H]12` [ETP, ertapenem] yielded an MIC ([1]; EA 15038 (porin+), [PMBN] MIC/8) of 0.125 µg/mL, an MIC ([1]; Klebsiella aerogenes) of 0.125 µg/mL and an MIC ([1]; Klebsiella aerogenes, EA 15038 (porin+), [PMBN] 0, read-out: MIC) of 0.25 µg/mL. It also gave an MIC ([1]; Klebsiella aerogenes, EA 15038 (porin+), [PMBN] MIC/5, read-out: MIC) of 0.06 µg/mL, an MIC [2] of 0.125 µg/mL and an MIC ([2]; EA 2 (porin+), [PMBN] 0, read-out: MIC) of 0.03 µg/mL. The MIC ([2]; EA 2 (porin+), [PMBN] MIC/8, read-out: MIC) was 0.25 µg/mL, the MIC ([2]; EA 2 (porin+), [PMBN] MIC/10, read-out: MIC) was 0.25 µg/mL and the MIC (C. freundii 0403012; [PMBN] 0) was 8 µg/mL. It also gave an MIC (C. freundii 0403012; [PMBN] MIC/5) of 4 µg/mL, an MIC (C. freundii 0403012; [PMBN] MIC/8) of 4 µg/mL and an MIC (C. freundii 0403012; [PMBN] MIC/10) of 8 µg/mL. The MIC (C. freundii 1204047; [PMBN] 0) was 32 µg/mL, the MIC (C. freundii 1204047; [PMBN] MIC/5) was 4 µg/mL and the MIC (C. freundii 1204047; [PMBN] MIC/8) was 8 µg/mL. For the same compound, the MIC (C. freundii 1204047; [PMBN] MIC/10) was 8 µg/mL, the MIC ([3]; [PMBN] 0) was 16 µg/mL and the MIC ([3]; [PMBN] MIC/5) was 8 µg/mL. For the same compound, the MIC ([3]; [PMBN] MIC/8) was 32 µg/mL, the MIC ([3]; [PMBN] MIC/10) was 32 µg/mL and the MIC ([4]; [PMBN] 0) was 2 µg/mL. The MIC ([4]; [PMBN] MIC/5) was 1 µg/mL, the MIC ([4]; [PMBN] MIC/8) was 1 µg/mL and the MIC ([4]; [PMBN] MIC/10) was 1 µg/mL. The MIC ([5]; [PMBN] 0) was 4 µg/mL, the MIC ([5]; [PMBN] MIC/5) was 8 µg/mL and the MIC ([5]; [PMBN] MIC/8) was 8 µg/mL. The MIC ([5]; [PMBN] MIC/10) was 8 µg/mL, the MIC ([6]; [PMBN] 0) was 4 µg/mL and the MIC ([6]; [PMBN] MIC/5) was 4 µg/mL. The MIC ([6]; [PMBN] MIC/8) was 4 µg/mL, the MIC ([6]; [PMBN] MIC/10) was 4 µg/mL and the MIC ([7]; [PMBN] 0) was 4 µg/mL. The MIC ([7]; [PMBN] MIC/5) was 4 µg/mL, the MIC ([7]; [PMBN] MIC/8) was 8 µg/mL and the MIC ([7]; [PMBN] MIC/10) was 8 µg/mL. For the same compound, the MIC (E. cloacae 9304026; [PMBN] 0) was 16 µg/mL, the MIC (E. cloacae 9304026; [PMBN] MIC/5) was 8 µg/mL and the MIC (E. cloacae 9304026; [PMBN] MIC/8) was 8 µg/mL. For the same compound, the MIC (E. cloacae 9304026; [PMBN] MIC/10) was 4 µg/mL, the MIC ([8]; [PMBN] 0) was 0.25 µg/mL and the MIC ([8]; [PMBN] MIC/5) was 0.25 µg/mL. The MIC ([8]; [PMBN] MIC/8) was 0.25 µg/mL, the MIC ([8]; [PMBN] MIC/10) was 0.25 µg/mL and the MIC ([9]; [PMBN] 0) was 8 µg/mL. The MIC ([9]; [PMBN] MIC/5) was 4 µg/mL, the MIC ([9]; [PMBN] MIC/8) was 4 µg/mL and the MIC ([9]; [PMBN] MIC/10) was 4 µg/mL. The MIC ([10]; [PMBN] 0) was 8 µg/mL, the MIC ([10]; [PMBN] MIC/5) was 2 µg/mL and the MIC ([10]; [PMBN] MIC/8) was 4 µg/mL. It also gave an MIC ([10]; [PMBN] MIC/10) of 4 µg/mL, an MIC ([11]; [PMBN] 0) of 128 µg/mL and an MIC ([11]; [PMBN] MIC/5) of 16 µg/mL. The MIC ([11]; [PMBN] MIC/8) was 32 µg/mL, the MIC ([11]; [PMBN] MIC/10) was 32 µg/mL and the MIC ([12]; [PMBN] 0) was 4 µg/mL. It also gave an MIC ([12]; [PMBN] MIC/5) of 4 µg/mL, an MIC ([12]; [PMBN] MIC/8) of 4 µg/mL and an MIC ([12]; [PMBN] MIC/10) of 4 µg/mL. It also gave an MIC ([13]; [PMBN] 0) of 16 µg/mL, an MIC ([13]; [PMBN] MIC/5) of 8 µg/mL and an MIC ([13]; [PMBN] MIC/8) of 8 µg/mL. It also gave an MIC ([13]; [PMBN] MIC/10) of 16 µg/mL, an MIC ([14]; [PMBN] 0) of 16 µg/mL and an MIC ([14]; [PMBN] MIC/5) of 64 µg/mL. The MIC ([14]; [PMBN] MIC/8) was 64 µg/mL, the MIC ([14]; [PMBN] MIC/10) was 64 µg/mL and the MIC ([15]; [PMBN] 0) was 64 µg/mL. For the same compound, the MIC ([15]; [PMBN] MIC/5) was 256 µg/mL, the MIC ([15]; [PMBN] MIC/8) was 256 µg/mL and the MIC ([15]; [PMBN] MIC/10) was 256 µg/mL. It also gave an MIC ([16]; [PMBN] 0) of 8 µg/mL, an MIC ([16]; [PMBN] MIC/5) of 8 µg/mL and an MIC ([16]; [PMBN] MIC/8) of 16 µg/mL. For the same compound, the MIC ([16]; [PMBN] MIC/10) was 16 µg/mL, the MIC ([17]; [PMBN] 0) was 1 µg/mL and the MIC ([17]; [PMBN] MIC/5) was 2 µg/mL. For the same compound, the MIC ([17]; [PMBN] MIC/8) was 4 µg/mL, the MIC ([17]; [PMBN] MIC/10) was 4 µg/mL and the MIC ([18]; [PMBN] 0) was 256 µg/mL. The MIC ([18]; [PMBN] MIC/5) was 256 µg/mL, the MIC ([18]; [PMBN] MIC/8) was 256 µg/mL and the MIC ([18]; [PMBN] MIC/10) was 256 µg/mL.
